Experimental data published in patent US10364263B2, “Cyclic phosphates and cyclic phosphoramidates for the treatment of neurologic disorders” (Retrophin, Inc., priority 2015, dated 2019).
Like-named read-outs stand apart in the source and are kept apart here.

Tests used:
[1] = Stability in human plasma; format: in vitro ADME; conditions: 37° C.; for t1/2, Human Plasma, Diastereoisomer B: 3 μM
Outline: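 Test compound at 3 μM (0.1% DMSO) was incubated in mouse or human plasma at 37 °C and sampled in duplicate at 0, 10, 20, 30, 40 and 60 min. Reactions were stopped with acetonitrile/formic acid containing internal standard. Remaining parent was measured by UPLC-MS/MS without a calibration curve.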

[2] = tested on: PANK2 silenced human neuroblastoma IMR32 cells (PANK2−/−); experiment: Coenzyme A assay in PANK2 silenced cells (LC-MS quantification of free CoA); format: cell-based; conditions: compound added twice (24 h + 24 h), relative to 0.1% DMSO controls
Outline: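 Free intracellular CoA was measured by positive-mode LC-MS/MS of 20% TFA extracts, taking 2 μl per 10^6 cells as intracellular volume. Cells were IMR32 with stable lentiviral PANK2 knockdown, dosed twice 24 h apart (48 h total, 0.1% DMSO). Output is fold increase over vehicle.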

[3] = Chemical stability in aqueous solution (phosphate buffered saline, NMR)
Experimental: (§1) To measure chemical stability in aqueous solution, the half-life (t1/2), or time needed for the concentration to decrease by half, was determined for select compounds in phosphate buffered saline solution. Compounds were dissolved in a solution containing 10 mM phosphate buffer (pH 7.5) and 5% of D2O to a final concentration of −1 mM. All spectra were obtained at 37° C. on a Bruker Avance 600 NMR spectrometer equipped with an inverse broad-band probe with z-gradients. Data were obtained every 15 min for a total time period of 4 h or longer, according to the observed stability. ^31P NMR was performed at 242.55 MHz, with gated decoupling of the protons. An observation frequency range of 14619.9 Hz and 32 K complex data points were used for acquisition. A pulse angle of 90° and a 4-sec pulse cycle were utilized. Thirty-two accumulations were obtained before Fourier transformation of the free induction decay. ^1H NMR spectra were acquired using the 1DNOESY experiment with water presaturation for better solvent suppression. An observation frequency range of 12019.23 Hz, a 10-sec pulse cycle, and 32 K complex data points were used for acquisition. Sixty-four scans were added prior to Fourier transformation. Integral data were obtained using the TopSpin software.
(§2) Stability was determined based on analysis of disappearance of the compounds as a function of incubation time. Quantification of test compounds was measured as a peak area relative to an internal standard. The elimination constant, k, was calculated by plotting mean disappearance values on a semi-logarithmic scale and fitting with a best fit linear regression. The half-life (t1/2) expressed in hours was derived using Equation 1: t1/2=ln2/(−k). Equation 1:

[4] = physchem; conditions: buffer, phosphate buffered saline, 10 mM phosphate buffer pH 7.5, 37° C.
Experimental: as §1, §2

[5] = human, plasma, Diastereoisomer A (upfield shift in 31P NMR), read-out: t1/2, Human Plasma, Diastereoisomer A (converted)
[6] = human, plasma, Diastereoisomer B, read-out: t1/2, Human Plasma, Diastereoisomer B (converted)
[7] = pH 7.5, t1/2 (h) Diastereoisomer A, 10 mM phosphate buffer pH 7.5, 37° C., Diastereoisomer A = upfield shift in the 31P NMR
[8] = pH 7.5, t1/2 (h) Diastereoisomer B, 10 mM phosphate buffer pH 7.5, 37° C., Diastereoisomer B
[9] = Diastereoisomer A (upfield shift in 31P NMR), read-out: t1/2, Human Plasma, Diastereoisomer A (converted)
[10] = pH 7.5, t1/2 (h) Diastereoisomer A, Diastereoisomer A = upfield shift in the 31P NMR
[11] = pH 7.5, t1/2 (h) Diastereoisomer B, Diastereoisomer B

Structure (SMILES)	half-life at 3 µM [1, 5] [min]	half-life at 3 µM [1, 6] [min]	PANK2−/− CoA (Fold Increase): fold increase in Coenzyme A (CoA) levels relative to controls [2] [Fold Increase]	other results
COC(=O)CCNC(=O)[C@@H]1OP(=O)(N[C@@H](C)C(=O)OCCc2ccccc2)OCC1(C)C (stereo partly drawn) [Compound No. 2, Methyl 3-((4R)-5,5-dimethyl-2-oxido-2-(((S)-1-oxo-1-phenethoxypropan-2-yl)amino)-1,3,2-dioxaphosphinane-4-carboxamido)propanoate]	57	54	6.80	–
COC(=O)CCNC(=O)[C@@H]1OP(=O)(OCCSC(=O)C(C)(C)C)OCC1(C)C (stereo partly drawn) [Compound No. 2-133, Methyl 3-((4R)-5,5-dimethyl-2-oxido-2-(2-(pivaloylthio)ethoxy)-1,3,2-dioxaphosphinane-4-carboxamido)propanoate]	–	–	89.53	–
COC(=O)CCNC(=O)[C@@H]1OP(=O)(N[C@@H](C)C(=O)OCc2ccccc2)OCC1(C)C (stereo partly drawn) [Compound No. 11, Benzyl ((4R)-4-((3-methoxy-3-oxopropyl)carbamoyl)-5,5-dimethyl-2-oxido-1,3,2-dioxaphosphinan-2-yl)-L-alaninate]	–	–	0.99	half-life at 1 mM ([3]; pH 7.5, half-lives, phosphate buffered saline solution, both diastereoisomers): > 2.5 days; half-life at 1 mM [3, 7]: > 4.17 days; half-life at 1 mM [3, 8]: > 2.5 days
COC(=O)CCNC(=O)[C@@H]1OP(=O)(OCOC(=O)c2ccccc2)OCC1(C)C (stereo partly drawn) [Compound No. 64, (((4R)-4-((3-methoxy-3-oxopropyl)carbamoyl)-5,5-dimethyl-2-oxido-1,3,2-dioxaphosphinan-2-yl)oxy)methyl benzoate]	< 9.6	< 9.6	278.1	half-life at 1 mM [3, 7]: 3.62 days; half-life at 1 mM [3, 8]: 0.542 days
COC(=O)CCNC(=O)[C@@H]1OP(=O)(OCOC(=O)C(C)(C)C)OCC1(C)C (stereo partly drawn) [Compound No. 65, (((4R)-4-((3-methoxy-3-oxopropyl)carbamoyl)-5,5-dimethyl-2-oxido-1,3,2-dioxaphosphinan-2-yl)oxy)methyl pivalate]	> 60	< 9.6	222.6	half-life at 1 mM [3, 7]: 1.69 days; half-life at 1 mM [3, 8]: 0.3 days
COC(=O)CCNC(=O)[C@@H]1OP(=O)(OCOC(=O)OC(C)C)OCC1(C)C (stereo partly drawn) [Compound No. 69, Methyl 3-((4R)-2-(((isopropoxycarbonyl)oxy)methoxy)-5,5-dimethyl-2-oxido-1,3,2-dioxaphosphinane-4-carboxamido)propanoate]	> 60	< 9.6	181.1	–
COC(=O)CCNC(=O)[C@@H]1OP(=O)(OCOC(=O)c2cncs2)OCC1(C)C (stereo partly drawn) [Compound No. 70, (((4R)-4-((3-methoxy-3-oxopropyl)carbamoyl)-5,5-dimethyl-2-oxido-1,3,2-dioxaphosphinan-2-yl)oxy)methyl thiazole-5-carboxylate]	< 9.6	< 9.6	87.75	–
COC(=O)CCNC(=O)[C@@H]1OP(=O)(N[C@@H](C)C(=O)OC)OCC1(C)C (stereo partly drawn) [compound 5, methyl 3-((4R)-2-(((S)-1-methoxy-1-oxopropan-2-yl)amino)-5,5-dimethyl-2-oxido-1,3,2-dioxaphosphinane-4-carboxamido)propanoate]	–	–	1.15	half-life at 3 µM [1, 9]: > 60 min; t1/2, Human Plasma, Diastereoisomer B ([1]; Diastereoisomer B): >1 h; half-life [4, 10]: 2400 min; half-life [4, 11]: 2400 min
COC(=O)CCNC(=O)[C@@H]1OP(=O)(N[C@@H](Cc2ccccc2)C(=O)OCc2ccccc2)OCC1(C)C (stereo partly drawn) [compound 10, benzyl ((4R)-4-((3-methoxy-3-oxopropyl)carbamoyl)-5,5-dimethyl-2-oxido-1,3,2-dioxaphosphinan-2-yl)-L-phenylalaninate]	–	–	1.05	–
COC(=O)CCNC(=O)[C@@H]1OP(=O)(N[C@H](C)C(=O)OC)OCC1(C)C (stereo partly drawn) [compound 16, methyl 3-((4R)-2-(((R)-1-methoxy-1-oxopropan-2-yl)amino)-5,5-dimethyl-2-oxido-1,3,2-dioxaphosphinane-4-carboxamido)propanoate]	–	–	1.21	half-life at 3 µM [1, 9]: > 60 min; t1/2, Human Plasma, Diastereoisomer B ([1]; Diastereoisomer B): >1 h; half-life [4, 10]: > 4800 min; half-life [4, 11]: > 4800 min
COC(=O)CCNC(=O)[C@@H]1OP(=O)(NCCN2CCCC2)OCC1(C)C (stereo partly drawn) [compound 109, methyl 3-((4R)-5,5-dimethyl-2-oxido-2-((2-(pyrrolidin-1-yl)ethyl)amino)-1,3,2-dioxaphosphinane-4-carboxamido)propanoate]	–	–	1.87	half-life at 3 µM [1, 9]: > 60 min; half-life [4, 10]: 2880 min; half-life [4, 11]: 924 min

Continued, in another order:

half-life at 3 µM [1, 5] [min]	half-life at 3 µM [1, 6] [min]	Structure (SMILES)	PANK2−/− CoA (Fold Increase): fold increase in Coenzyme A (CoA) levels relative to controls [2] [Fold Increase]	other results
> 60	57.6	CCc1cc(C(=O)OCOP2(=O)OCC(C)(C)[C@H](C(=O)NCCC(=O)OC)O2)n(C)n1 (stereo partly drawn) [Compound No. 84, (((4R)-4-((3-methoxy-3-oxopropyl)carbamoyl)-5,5-dimethyl-2-oxido-1,3,2-dioxaphosphinan-2-yl)oxy)methyl 3-ethyl-1-methyl-1H-pyrazole-5-carboxylate]	325.47	–
> 60	–	CC(C)(C)C(=O)OCO[P@@]1(=O)OCC(C)(C)[C@H](C(=O)NCCC(=O)O)O1 [Compound No. 91, 3-((2S,4R)-5,5-dimethyl-2-oxido-2-((pivaloyloxy)methoxy)-1,3,2-dioxaphosphinane-4-carboxamido)propanoic acid]	4.03	–
> 60	> 60	COC(=O)CCNC(=O)[C@@H]1OP(=O)(N[C@@H](C)C(=O)OCc2cc(C)cc(C)c2)OCC1(C)C (stereo partly drawn) [compound 3, (2S)-3,5-dimethylbenzyl 2-(((4R)-4-((3-methoxy-3-oxopropyl)carbamoyl)-5,5-dimethyl-2-oxido-1,3,2-dioxaphosphinan-2-yl)amino)propanoate]	1.65	half-life at 1 mM [3, 7]: > 3.33 days; half-life at 1 mM [3, 8]: > 3.33 days
44.4	> 60	COC(=O)[C@H](C)NP1(=O)OCC(C)(C)[C@H](C(=O)NCCC(=O)OCc2ccncc2)O1 (stereo partly drawn) [compound 20, (2S)-methyl 2-(((4R)-5,5-dimethyl-2-oxido-4-((3-oxo-3-(pyridin-4-ylmethoxy)propyl)carbamoyl)-1,3,2-dioxaphosphinan-2-yl)amino)propanoate]	0.9	half-life at 1 mM [3, 7]: > 3.33 days; half-life at 1 mM [3, 8]: > 3.33 days
15.6	49.2	COC(=O)CCNC(=O)[C@@H]1OP(=O)(N[C@@H](C)C(=O)OCc2cccnc2)OCC1(C)C (stereo partly drawn) [compound 24, methyl 3-((4R)-5,5-dimethyl-2-oxido-2-(((S)-1-oxo-1-(pyridin-3-ylmethoxy)propan-2-yl)amino)-1,3,2-dioxaphosphinane-4-carboxamido)propanoate]	0.92	–
49.8	–	CC1(C)COP(=O)(O)O[C@H]1C(=O)NCCC(=O)O [compound 108, 3-((4R)-2-hydroxy-5,5-dimethyl-2-oxido-1,3,2-dioxaphosphinane-4-carboxamido)propanoic acid]	1.07	half-life at 1 mM ([3]; pH 7.5, t1/2 (h), pH 7.5, 37° C., compound not chiral at phosphorous, one value spanning both columns): > 4.17 days
> 60	> 60	COC(=O)CCNC(=O)[C@@H]1OP(=O)(NCCC(=O)OCc2ccccc2)OCC1(C)C (stereo partly drawn) [compound 117, benzyl 3-(((4R)-4-((3-methoxy-3-oxopropyl)carbamoyl)-5,5-dimethyl-2-oxido-1,3,2-dioxaphosphinan-2-yl)amino)propanoate]	1.06	–
